Source: patent US6756367B2, “Benzo-oxadiazoles, -thiadiazoles and -1,4-diazines, pharmaceutical compositions containing them and a process for preparing them” (Novartis AG, priority 1998, dated 2004)
Counter-ions that a name gives are not always drawn.

How the values were obtained:
[1] = target: T1, human recombinant CRF1 (Homo sapiens, UniProt P34998); experiment: CRF-stimulated cyclic AMP accumulation in CHO cells expressing human recombinant CRF1 (antagonism, KB from curve shift); assay type: cell-based; details: cAMP, shift of CRF curve with antagonist 10 μM
T1 construct: expressed in transfected cells
T1 sequence (P34998 24-415): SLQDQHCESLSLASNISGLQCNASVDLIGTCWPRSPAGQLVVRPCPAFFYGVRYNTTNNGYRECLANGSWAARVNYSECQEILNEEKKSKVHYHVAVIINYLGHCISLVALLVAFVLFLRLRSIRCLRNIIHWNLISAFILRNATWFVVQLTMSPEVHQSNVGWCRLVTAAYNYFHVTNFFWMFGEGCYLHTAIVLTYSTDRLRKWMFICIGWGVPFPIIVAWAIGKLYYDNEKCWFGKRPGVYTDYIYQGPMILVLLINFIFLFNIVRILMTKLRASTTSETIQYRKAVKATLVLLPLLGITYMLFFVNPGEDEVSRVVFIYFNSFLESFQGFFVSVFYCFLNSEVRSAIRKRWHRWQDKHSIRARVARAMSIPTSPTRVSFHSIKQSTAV
Protocol: In particular the agents of the invention bind to CRF receptors.
Chinese hamster ovary (CHO) cells expressing human recombinant CRF1 (Chen et al., Proc Natl Acad Sci USA 90, 8967-8971, 1993) are propagated in Dulbecco's modified Eagle medium supplemented with 10% foetal calf serum, non-essential aminoacids, 100 U/ml penicillin, 100 mg/l streptomycin and 1 g/l geneticin (G418). For cyclic AMP determinations, cells are grown to confluence in 24-multiwell plates. Stimulation of cyclic AMP accumulation by CRF (human/rat form) is measured in intact cells, using the [^3H]adenine labelling technique, as described previously (Schoeffter et al., Neuropharmacology 36, 429-437, 1997). Concentration-response curves for CRF are constructed in the presence of putative antagonists (10 μM) or vehicle (dimethyl sulfoxide 1% vol). KB values are calculated from the rightward shifts of the control curve, according to the formula: KB=[antagonist, M]/concentration-ratio-1), where the concentration-ratio designates the ratio of CRF EC50 value in the presence/CRF EC50 value in the absence, of antagonist [Furchgott, In: catecholamines (edited by Blaschko H and Muscholl E) pp. 283-335. Springer, Berlin, 1972].

[2] = system: mouse; experiment: mouse elevated plus-maze (anxiolytic activity); assay type: in vivo
Excerpt: For example the anxiolytic activity of the agents of the invention could be confirmed in the mouse elevated plus-maze [see for example Rodgers R. J., Behavioural Pharmacology 8: 477-496 (1997) where the relevance of the elevated plus-maze is discussed on p. 486; for the method, see Rodgers R. J. et al. Ethology and Psychopharmacology (Eds S J Cooper and C A Hendrie), pp 9-44 (1994), J. Wiley, Chichester]. In this test, the agents of the invention show anxiolytic-like effects on administration of 0.1 to 30 mg/kg p.o.

| SMILES | melting point | further results |
| --- | --- | --- |
| CCN(C)c1nc(C)nc(Nc2c(Cl)cc(Cl)c3nsnc23)c1C | 116 °C | – |
| Cc1nc(Nc2c(Cl)cc(Cl)c3nsnc23)c(C)c(N(C)Cc2ccccc2)n1 | 138 °C | – |
| CCCN(CCC)c1nc(C)nc(Nc2c(C)cc(C)c3nsnc23)c1C [Example 1, 5,7-dimethyl-4-[2,5-dimethyl-6-(di-n-propyl)-amino-pyrimidin-4-yl]-amino-2,1,3-benzothiadiazole] | – | Kb [1]: 0.036 µM; parameters related to motor stimulation in the elevated plus-maze ([2]; 0.1 to 10 mg/kg p.o., in contrast to the standard chlordiazepoxide): not affected; effect on anxiety-related behavioural parameters in the elevated plus-maze ([2]; doses of 0.1 to 10 mg/kg p.o.): significantly affect the anxiety-related behavioural parameters; dose of maximum effect on anxiety-related behavioural parameters ([2]; p.o., elevated plus-maze): 3 mg/kg |
| CCCN(CCC)c1nc(C)nc(Nc2c(Cl)cc(Cl)c3nsnc23)c1C | 118 to 121 °C | – |
| CCCN(CCC)c1cc(Nc2c(C)cc(C)c3nsnc23)nc(C)n1 (as salt: fumarate) | 177 to 179 °C | – |
| CCCCN(CC)c1nc(C)nc(Nc2c(C)cc(C)c3nccnc23)c1C | 106 to 107 °C | – |
| CCCN(CCC)c1nc(C)nc(Nc2c(C)cc(C)c3nsnc23)c1C#N | 171 to 173 °C | – |
| CCCN(CCC)c1nc(C)nc(Nc2c(Cl)ccc3nsnc23)c1C | 77 to 80 °C | – |
| CCCN(CCC)c1nc(C)nc(Nc2c(Cl)cc(C)c3nsnc23)c1C | 112 to 114 °C | – |
| CCCN(CCC)c1nc(C)nc(Nc2c(Cl)cc(C)c3nccnc23)c1C | 107 to 109 °C | – |
| CCCCN(CCCC)c1nc(C)nc(Nc2c(Cl)cc(Cl)c3nsnc23)c1C | 56 °C | – |
| CCCN(CCC)c1nc(C)nc(Nc2c(C)cc(C)c3nccnc23)c1C | 94 to 96 °C | – |
| CCCN(CCC)c1nc(C)nc(Nc2c(C)cc(Cl)c3nsnc23)c1C | 102 to 104 °C | – |
| CCC(CC)Nc1nc(C)nc(Nc2c(C)cc(C)c3nsnc23)c1C | 113 to 115 °C | – |
| CCCN(CCC)c1nc(C)nc(Nc2c(Cl)cc(Cl)c3nccnc23)c1C | 126 to 128 °C | – |
| CCCN(CCC)c1nc(C)nc(Nc2c(C)cc(C)c3nsnc23)c1Cl | 106 to 108 °C | – |
| CCCCN(CC)c1nc(C)nc(Nc2c(C)cc(C)c3nsnc23)c1C | 83 to 84 °C | – |
| CCCCN(C)c1nc(C)nc(Nc2c(Cl)cc(Cl)c3nsnc23)c1C | 105 °C | – |
| CCC(C)Nc1nc(C)nc(Nc2c(C)cc(C)c3nsnc23)c1C (centres unmarked) | 88 °C | – |
| CCCN(CC)c1nc(C)nc(Nc2c(Cl)cc(Cl)c3nccnc23)c1C | 120 to 123 °C | – |
| CCCN(CC)c1nc(C)nc(Nc2c(Cl)cc(Cl)c3nsnc23)c1C | 107 °C | – |
| C=CCN(CC=C)c1nc(C)nc(Nc2c(Cl)cc(Cl)c3nsnc23)c1C | 112 °C | – |
| CCCN(CCC)c1nc(C)nc(Nc2c(C)ccc3nsnc23)c1C | 95 to 98 °C | – |
| Cc1nc(NCc2ccccc2)c(C)c(Nc2c(Cl)cc(Cl)c3nsnc23)n1 | 126 °C | – |
| CCN(CC)c1nc(C)nc(Nc2c(Cl)cc(Cl)c3nsnc23)c1C (as salt: fumarate) | 189 to 193 °C | – |
| CCCN(CC)c1nc(C)nc(Nc2c(C)cc(C)c3nccnc23)c1C | 109 to 110 °C | – |
| CCCN(CC)c1nc(C)nc(Nc2c(C)cc(C)c3nsnc23)c1C | 101 to 102 °C | – |
| CCCCN(CC)c1nc(C)nc(Nc2c(Cl)cc(Cl)c3nsnc23)c1C | 101 °C | – |
| CCCCN(CC)c1nc(C)nc(Nc2c(Cl)cc(Cl)c3nccnc23)c1C | 117 to 119 °C | – |
